Here are results for 16 compounds from US5340833A, “Urokinase inhibitors” (Eisai Co., Ltd., priority 1992, dated 1994).

One may read the IC50 as the midpoint of a concentration-inhibition curve.

For test [1], the target named is T1, human high molecular weight urokinase (Homo sapiens, UniProt P00749).
T1 construct: human high molecular weight urokinase; purchased American Diagnostica, Greenwich, Conn
Kind of test: Urokinase Direct Assay. The class given is biochemical. Here is the method: (i) A direct chromogenic assay in which urokinase cleaves a synthetic tripeptide p-nitroanilide (pNA) urokinase substrate.
Incubations were carried out at 37° C. for approximately 2 hours or until adequate yellow color developed. Color was quantitated by measuring absorbance at 405 nm (A405) using a Titertek Multiskan MCC/340 MK II microtiter plate spectrophotometer.

For test [2], the target named is T2, urokinase (Homo sapiens, UniProt P00749).
T2 construct: human high molecular weight urokinase; purchased American Diagnostica, Greenwich, Conn
The test can be described thus: Urokinase Indirect (Plasminogen-Linked) Assay. It counts as biochemical.
Procedure: (ii) An indirect plasminogen-linked assay in which urokinase proteolytically activates plasminogen, forming plasmin which then cleaves a synthetic tripeptide pNA plasmin substrate.
Incubations were carried out at 22° C. for 45-60 minutes or until adequate color developed. Color qas quantitated as in the urokinase direct assay above. Parallel incubations were performed with and without plasminogen, and corrected absorbance values were obtained by subtracting values obtained without plasminogen from those obtained with plasminogen, eliminating any contribution of direct cleavage, if any, of plasmin substrate by urokinase.

The target in another test is T3, human two-chain tPA (Homo sapiens, UniProt P00750).
T3 construct: human two-chain tPA was substituted for urokinase; purchased American Diagnostica
The test can be described thus: tPA Indirect (Plasminogen-Linked) Assay (tPA Direct Assay result where lower). The class given is biochemical. The settings on record: for tPA/UPA ratio: ratio with respect to urokinase indirect plasminogen-linked IC50, larger = greater specificity for urokinase; for inhibition at 1000 µM: read-out: tPA activity observed relative to inhibitor-free controls. In a few lines:
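Direct and plasminogen-linked pNA chromogenic assays were run for tPA. They followed the urokinase format, but Spectrozyme tPA replaced the urokinase substrate.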

Another test deals with T4, human plasmin (Homo sapiens, UniProt P00747).
T4 construct: plasmin, the potent general protease produced by cleavage of plasminogen by either urokinase or tPA; purchased American Diagnostica
Kind of test: Plasmin Assay. The class given is biochemical. To be noted: for PLM/uPA ratio: ratio with respect to urokinase indirect plasminogen-linked IC50, larger = greater specificity for urokinase; for inhibition at 1000 µM: read-out: PLASMIN activity observed relative to inhibitor-free controls. In short, it runs like this:
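Chromogenic pNA substrate cleavage by plasmin; remaining conditions and colour quantitation follow the urokinase direct assay.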

The test system of test [3] is HT1080 human fibrosarcoma cells. Kind of test: Cell-based [^3 H]Fibronectin Degradation Assay. The settings on record: plasminogen-dependent, FIG. 4. How it is done:
Fifty microliter volumes of HT1080 cell suspensions (harvested without trypsinization) containing 1×10^6 cells/ml were then added, and the incubations continued for 18 hours at 37° C. in a humidified atmosphere containing 5% CO2. Radioactivity levels in 50 μl aliquots of the supernatants was then determined by liquid scintillation counting.

Test [4] concerns urokinase. The settings on record: FIG. 2.
[5] abbreviates: Table 3 column 4, simple number, unit inferred, read-out: uPA Indirect (plasminogen-linked) IC50.
Where [6] appears, read: tPA Indirect Plasminogen-Linked Assay, in rare cases direct assay result if lower, read-out: tPA IC50.

Counter-ions that a name gives are not always drawn. Like-named read-outs stand apart in the source and are kept apart here.

T3 sequence (P00750 311-562 limits assumed): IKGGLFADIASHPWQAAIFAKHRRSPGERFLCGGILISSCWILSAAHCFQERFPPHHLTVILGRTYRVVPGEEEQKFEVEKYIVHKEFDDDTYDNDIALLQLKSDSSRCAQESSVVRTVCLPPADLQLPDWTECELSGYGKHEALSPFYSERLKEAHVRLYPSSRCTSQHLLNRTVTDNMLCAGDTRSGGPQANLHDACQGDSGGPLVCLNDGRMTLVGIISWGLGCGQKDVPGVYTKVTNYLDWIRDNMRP
T3 sequence (P00750 36-310 limits assumed): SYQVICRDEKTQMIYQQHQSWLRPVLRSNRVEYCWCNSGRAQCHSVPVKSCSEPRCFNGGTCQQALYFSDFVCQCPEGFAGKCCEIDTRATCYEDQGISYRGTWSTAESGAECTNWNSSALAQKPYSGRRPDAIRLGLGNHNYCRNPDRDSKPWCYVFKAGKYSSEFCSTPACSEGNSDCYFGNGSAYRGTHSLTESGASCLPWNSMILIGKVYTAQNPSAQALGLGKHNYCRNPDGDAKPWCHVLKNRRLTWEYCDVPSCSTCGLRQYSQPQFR
T4 sequence (P00747 581-810 limits assumed): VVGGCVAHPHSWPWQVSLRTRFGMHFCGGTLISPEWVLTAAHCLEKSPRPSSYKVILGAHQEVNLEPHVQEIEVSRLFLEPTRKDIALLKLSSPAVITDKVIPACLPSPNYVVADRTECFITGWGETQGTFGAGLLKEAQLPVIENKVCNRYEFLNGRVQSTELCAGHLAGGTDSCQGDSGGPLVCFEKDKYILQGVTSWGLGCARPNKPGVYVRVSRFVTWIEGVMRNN
T4 sequence (P00747 97-580 limits assumed): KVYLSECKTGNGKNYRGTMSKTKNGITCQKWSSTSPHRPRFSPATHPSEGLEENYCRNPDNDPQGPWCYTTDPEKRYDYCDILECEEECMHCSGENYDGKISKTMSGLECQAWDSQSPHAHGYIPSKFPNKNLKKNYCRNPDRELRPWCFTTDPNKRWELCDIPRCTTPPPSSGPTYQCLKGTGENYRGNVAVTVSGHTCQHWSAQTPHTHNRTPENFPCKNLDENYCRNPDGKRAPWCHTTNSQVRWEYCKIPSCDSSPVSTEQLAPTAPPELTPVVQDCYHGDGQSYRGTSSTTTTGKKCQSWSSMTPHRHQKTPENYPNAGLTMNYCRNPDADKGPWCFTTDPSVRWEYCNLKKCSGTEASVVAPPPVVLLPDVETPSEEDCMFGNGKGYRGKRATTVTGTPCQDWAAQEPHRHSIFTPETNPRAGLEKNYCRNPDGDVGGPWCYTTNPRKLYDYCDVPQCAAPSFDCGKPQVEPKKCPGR

As to `Cl.N=C(N)c1cc2ccccc2s1` [Compound 1, Benzo[b]thiophene-2-carboxamidine hydrochloride], in test [1] (read-out: uPA Direct: percentage of residual urokinase activity relative to inhibitor-free controls), the residual urokinase activity at 1000 µM was found to be 3.5%. Besides, at urokinase [2] (setting [5]), the IC50 is 4.9 µM. At human two-chain tPA, the tPA/UPA ratio is recorded as greater than 200 and the inhibition at 1000 µM is 77%. Also, on human plasmin, the PLM/uPA ratio is greater than 200 and the inhibition at 1000 µM turned out to be 78%.
`CC(C)C=Cc1cccc2sc(C(=N)N)cc12` [Compound 22, 4-(E/Z-3-Methylbut-1-enyl)benzo[b]thiophene-2-carboxamidine hydrochloride]: the IC50 is 0.11 µM on urokinase [2] (setting [5]), 43 µM on human two-chain tPA (setting [6]) and 244 µM on human plasmin (read-out: PLASMIN IC50). Further, the tPA/UPA ratio at human two-chain tPA stood at 391. In addition, at human plasmin, the PLM/uPA ratio is recorded as 2218. Also, the “inhibition of cellular degradation of [^3 H]fibronectin” value in test [3] is recorded as “effective inhibitors”.
Consider `N=C(N)c1cc2c(C=Cc3ccc4c(c3)OCO4)cccc2s1` [Compound 65, 4-[E/Z-2-(Benzo-1,3-dioxolan-5-yl)ethenyl]benzo[b]thiophene-2-carboxamidinehydrochloride], for which the IC50 at human two-chain tPA amounted to 25 µM; at human plasmin it was 630 µM. Further, in the test with urokinase [4], the “mode of urokinase inhibition” value was “competitive, reversible inhibition”.
Regarding `Cl.N=C(N)c1cc2c(C#Cc3ccc4c(c3)OCO4)cccc2s1` [Compound 77, 4-[(Benzo-1,3-dioxolan-5-yl)ethynyl]benzo[b]thiophene-2-carboxamidine hydrochloride], the results for the 50% inhibitory concentration (IC50) on urokinase [2] (setting [5]), at human two-chain tPA (setting [6]) and on human plasmin (read-out: PLASMIN IC50) were 0.059 µM, 8.4 µM and roughly 250 µM, respectively. The tPA/UPA ratio at human two-chain tPA is given as 142. Also, at human plasmin, the PLM/uPA ratio entry is recorded as “≈ 4240”.
On to `Cl.N=C(N)c1cc2c(-c3ccc(-c4ccccc4)o3)cccc2s1` [Compound 78, 4-(5-Phenylfur-2-yl)benzo[b]thiophene-2-carboxamidine hydrochloride], for which the IC50 at urokinase [2] (setting [5]) was 0.49 µM; at human two-chain tPA (setting [6]), 26 µM; at human plasmin (read-out: PLASMIN IC50) it was roughly 250 µM. Further, the tPA/UPA ratio on human two-chain tPA was found to be 53. Further, at human plasmin, the PLM/uPA ratio entry is listed as “≈ 500”.
As to `Cl.N=C(N)c1cc2cc(Br)ccc2s1` [Compound 103, 5-Bromobenzo[b]thiophene-2-carboxamidine hydrochloride], on urokinase [2] (setting [5]), the 50% inhibitory concentration (IC50) stood at 3.5 µM. For the same compound, at human two-chain tPA, the tPA/UPA ratio is no less than 400 and the inhibition at 1000 µM amounted to 63%. Also, at human plasmin, the PLM/uPA ratio was no less than 4000 and the inhibition at 1000 µM was 98%.
On the same counts, the results for `Cl.N=C(N)c1cc2cc(I)ccc2s1` [Compound 104, 5-Iodobenzo[b]thiophene-2-carboxamidine hydrochloride] are 2.4 µM, no less than 500, 63%, no less than 5000 and 96%.
For the compound `C=Cc1ccc2sc(C(=N)N)cc2c1.Cl` [Compound 114, 5-(Ethenyl)benzo[b]thiophene-2-carboxamidine hydrochloride], the figures for the IC50 on urokinase [2] (setting [5]), on human two-chain tPA (setting [6]) and on human plasmin (read-out: PLASMIN IC50) were 1.6 µM, 37 µM and 288 µM, respectively. In addition, the tPA/UPA ratio at human two-chain tPA was 23. For the same compound, the PLM/uPA ratio on human plasmin is given as 180.
On the same counts, the results for `N=C(N)c1cc2cc(C=CC3CC3)ccc2s1` [Compound 121, 5-(E/Z-2-Cyclopropylethenyl)benzo[b]thiophene-2-carboxamidine hydrochloride] are 0.56 µM, 175 µM, 1050 µM, 313 and 1875.
On to `N=C(N)c1ccc(/C=C/c2ccc3sc(C(=N)N)cc3c2)cc1` [Compound 122, 5-[E-2-(4-Carboxamidinophenyl)ethenyl]benzo[b]thiophene-2-carboxamidine bis-hydrochloride], for which the figures for the IC50 on urokinase [2] (setting [5]), at human two-chain tPA (setting [6]) and on human plasmin (read-out: PLASMIN IC50) were 0.98 µM, 1.45 µM and 360 µM, respectively. On human two-chain tPA, the tPA/UPA ratio is on record as 1.48. The PLM/uPA ratio on human plasmin is reported as 367.
With `Cl.N=C(N)c1cc2cc(-c3ccccc3)ccc2s1` [Compound 124, 5-Phenylbenzo[b]thiophene-2-carboxamidine hydrochloride], at urokinase [2] (setting [5]), the IC50 stood at 1.2 µM. In addition, the tPA/UPA ratio on human two-chain tPA was found to be 215. Further, on human two-chain tPA (setting [6]), the half-inhibitory concentration (IC50) turned out to be 258 µM. Moreover, at human plasmin, the PLM/uPA ratio was no less than 10000 and the inhibition at 1000 µM amounted to 90%.
In the case of `Cl.N=C(N)c1cc2cc(-c3ccco3)ccc2s1` [Compound 126, 5-(Furan-2-yl)benzo[b]thiophene-2-carboxamidine hydrochloride], the IC50 at urokinase [2] (setting [5]) stood at 0.7 µM; on human two-chain tPA (setting [6]), 140 µM; at human plasmin (read-out: PLASMIN IC50), 534 µM. The tPA/UPA ratio at human two-chain tPA was 200. In addition, the PLM/uPA ratio on human plasmin is recorded as 763.
As to `C=Cc1ccc2sc(C(=N)N)cc2c1SC.Cl` [Compound 201, 4-(Methylthio)-5-ethenylbenzo[b]thiophene-2-carboxamidine hydrochloride], the concentration for half-maximal inhibition (IC50) is 4.4 µM in test [1]; 0.67 µM against urokinase [2] (uPA Indirect (plasminogen-linked) IC50, Table 3, unit inferred); 20 µM on human two-chain tPA (setting [6]); 43 µM at human plasmin (read-out: PLASMIN IC50). Moreover, the tPA/UPA ratio on human two-chain tPA stood at 30. Also, on human plasmin, the PLM/uPA ratio was 65.
`COc1ccc2sc(C(=N)N)cc2c1Br.Cl` [Compound 204, 4-Bromo-5-methoxybenzo[b]thiophene-2-carboxamidine hydrochloride]: the 50% inhibitory concentration (IC50) on urokinase [2] (setting [5]) is 1.7 µM. In addition, the tPA/UPA ratio on human two-chain tPA was determined as 251. Besides, the IC50 on human two-chain tPA (setting [6]) is 427 µM. At human plasmin, the PLM/uPA ratio is reported as no less than 750 and the inhibition at 1000 µM amounted to 69%.
As to `C=CCOCc1cc2ccc3sc(C(=N)N)cc3c2s1` [Compound 208, 5-(Prop-2-en-1-yloxymethyl)thieno[4,5-b]benzo[b]thiophene-2-carboxamidine hydrochloride], the figures for the IC50 at urokinase [2] (setting [5]), at human two-chain tPA (setting [6]) and on human plasmin (read-out: PLASMIN IC50) were 0.3 µM, 57 µM and 273 µM, respectively. At human two-chain tPA, the tPA/UPA ratio is 190. At human plasmin, the PLM/uPA ratio stood at 910.
For `Cl.N=C(N)c1cc2ccc3ccccc3c2s1` [Compound 312, Naphtho[1,2-b]thiophene-2-carboxamidine hydrochloride], the figures for the IC50 on urokinase [2] (setting [5]), on human two-chain tPA (setting [6]) and on human plasmin (read-out: PLASMIN IC50) were 1.9 µM, greater than 100 µM and greater than 100 µM, respectively. Further, on human two-chain tPA, the tPA/UPA ratio is recorded as greater than 50. Also, the PLM/uPA ratio at human plasmin is greater than 50.
